Measurements taken from ChEMBL document CHEMBL2169765, “Structural basis for the accommodation of bis- and tris-aromatic derivatives in vitamin D nuclear receptor” (J Med Chem, 2012).

Columns and labels:
Format in all cases: cell-based
[1] = target: T1, Vitamin D3 receptor (Homo sapiens, UniProt P11473); experiment: Transactivation of full length human VDR expressed in human HeLa cells assessed as increase in CYP24 transcription after 18 hrs by luciferase reporter gene assay
T1 sequence (P11473 whole entry): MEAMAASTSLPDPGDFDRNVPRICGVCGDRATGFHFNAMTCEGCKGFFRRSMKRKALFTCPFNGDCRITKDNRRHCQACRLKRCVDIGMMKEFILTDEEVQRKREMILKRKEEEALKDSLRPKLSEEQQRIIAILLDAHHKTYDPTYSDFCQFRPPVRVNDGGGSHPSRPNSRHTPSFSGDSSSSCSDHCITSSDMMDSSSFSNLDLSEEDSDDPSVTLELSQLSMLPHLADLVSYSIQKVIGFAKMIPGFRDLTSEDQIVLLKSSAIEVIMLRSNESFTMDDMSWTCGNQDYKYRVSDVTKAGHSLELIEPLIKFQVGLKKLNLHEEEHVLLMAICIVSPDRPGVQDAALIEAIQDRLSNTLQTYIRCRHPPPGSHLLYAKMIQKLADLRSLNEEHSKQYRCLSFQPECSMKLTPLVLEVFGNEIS

[2] = target: T1, Vitamin D3 receptor; experiment: Transactivation of GAL4-fused VDR ligand binding domain expressed in human HeLa cells after 16 hrs by luciferase reporter gene assay
[3] = target: T2, Vitamin D3 receptor (Homo sapiens) (UniProt P11473); experiment: Ratio of calcitriol EC50 to compound EC50 for full length human VDR expressed in human HeLa cells
T2 sequence (whole entry): T1 sequence (P11473 whole entry)

Row | Compound | EC50 [1] [nM] | EC50 [2] [nM] | Ratio EC50 [3]
1 | CC/C(=C\C=C\C(O)(C(F)(F)F)C(F)(F)F)c1cccc(CCc2ccc(CO)c(CO)c2)c1 | 2.8 | 1.7 | –
2 | CC/C(=C\C=C\C(O)(CC)CC)c1cccc(OCc2ccc(CO)c(CO)c2)c1 | 49 | – | –
3 | CC/C(=C\C=C\C(O)(C(F)(F)F)C(F)(F)F)c1cccc(OCc2ccc(CO)c(CO)c2)c1 | – | 5 | –

Now from value to compound:

Row | EC50 [1] [nM] | EC50 [2] [nM] | Ratio EC50 [3] | Compound
4 | 0.5 | – | 4 | CCCc1cc(C(O)(CC)CC)ccc1-c1cc(CCc2ccc(CO)c(CO)c2)ccc1C
5 | 2.2 | – | – | CCCc1cc(C(O)(CC)CC)ccc1-c1cc(OCc2ccc(CO)c(CO)c2)ccc1CC
